Results reported in patent publication US20250215029A1 (Recludix Pharma, Inc., priority 2022, published 2025).

Key:
[1] = target: T1, Recombinant STAT6 protein (STAT6 (W123-T658)) (Homo sapiens, UniProt P42226); experiment: STAT6 Fluorescence Polarization (FP) Assay; type: binding; conditions: STAT6 (W123-T658) 250 nM, probe 5-FAM-Ap[…]-NH2 2 nM, 45-minute incubation; read-out: STAT6 (FP assay IC50 class)
T1 construct: Recombinant STAT6 protein (STAT6 (W123-T658))
T1 sequence (P42226 123-658): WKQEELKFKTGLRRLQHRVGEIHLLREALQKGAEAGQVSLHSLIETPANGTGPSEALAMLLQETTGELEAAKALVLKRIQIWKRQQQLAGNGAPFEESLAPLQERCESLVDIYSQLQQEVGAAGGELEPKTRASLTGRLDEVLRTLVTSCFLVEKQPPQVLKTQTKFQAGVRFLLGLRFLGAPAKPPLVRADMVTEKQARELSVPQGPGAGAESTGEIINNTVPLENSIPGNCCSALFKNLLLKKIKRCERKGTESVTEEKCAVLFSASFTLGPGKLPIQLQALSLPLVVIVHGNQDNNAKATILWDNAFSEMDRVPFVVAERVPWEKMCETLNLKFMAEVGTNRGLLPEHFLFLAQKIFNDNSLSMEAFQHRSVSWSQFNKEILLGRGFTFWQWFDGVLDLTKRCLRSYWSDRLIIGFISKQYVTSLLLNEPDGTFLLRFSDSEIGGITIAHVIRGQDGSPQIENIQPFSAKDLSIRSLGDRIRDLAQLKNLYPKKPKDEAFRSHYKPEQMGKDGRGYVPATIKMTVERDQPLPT
Method in brief: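 Recombinant STAT6 (W123-T658) at 250 nM mixed with 2 nM 5-FAM phosphotyrosine peptide probe in HEPES pH 7.4 buffer with DTT, 1% DMSO final, added to serially diluted compounds. FP (mP) read after 45 min at room temperature; IC50 by nonlinear regression vs log concentration.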

[2] = target: T2, Recombinant STAT3 protein (STAT3 (G127-I722)) (Homo sapiens, UniProt P40763); experiment: STAT3 Fluorescence Polarization (FP) Assay; type: binding; conditions: STAT3 (G127-I722) 25 nM, probe 5-FAM-GpYLPQTV-NH2 2 nM, 45-minute incubation; read-out: STAT3 (FP assay IC50 class)
T2 construct: Recombinant STAT3 protein (STAT3 (G127-I722))
Method in brief: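 Compounds in serial dilution receive a premix of STAT3 (G127-I722, 25 nM) and fluorescent phosphotyrosine peptide 5-FAM-GpYLPQTV-NH2 (2 nM) at pH 7.4. After 45 min at room temperature, FP is measured and IC50 derived by nonlinear regression.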

T2 sequence (P40763 127-722): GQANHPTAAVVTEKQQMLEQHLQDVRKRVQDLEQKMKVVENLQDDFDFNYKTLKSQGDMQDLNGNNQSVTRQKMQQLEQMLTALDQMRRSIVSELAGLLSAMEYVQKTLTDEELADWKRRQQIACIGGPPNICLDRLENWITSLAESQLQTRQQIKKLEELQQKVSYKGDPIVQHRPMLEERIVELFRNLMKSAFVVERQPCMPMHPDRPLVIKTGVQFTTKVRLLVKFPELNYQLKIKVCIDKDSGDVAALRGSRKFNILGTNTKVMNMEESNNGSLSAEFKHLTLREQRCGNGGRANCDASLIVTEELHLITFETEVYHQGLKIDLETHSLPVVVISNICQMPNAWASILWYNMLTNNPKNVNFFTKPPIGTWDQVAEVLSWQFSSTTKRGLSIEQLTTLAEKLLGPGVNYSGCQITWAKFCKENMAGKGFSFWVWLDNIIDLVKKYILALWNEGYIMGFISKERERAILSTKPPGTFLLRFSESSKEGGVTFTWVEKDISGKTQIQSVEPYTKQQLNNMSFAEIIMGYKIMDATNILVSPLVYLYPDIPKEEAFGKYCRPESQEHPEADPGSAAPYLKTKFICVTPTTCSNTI

Structure (SMILES)	IC50 [1] [µM]	IC50 [2] [µM]
Cc1cccnc1N1CC[C@@H](NC(=O)[C@@H]2CC[C@@H]3CCCC[C@H](NC(=O)c4cc5cc(C(F)P(=O)(O)O)ccc5s4)C(=O)N32)C1 (stereo partly drawn) [Compound 534, (fluoro(2-(((3S,6S,10aS)-3-(((R)-1-(3-methylpyridin-2-yl)pyrrolidin-3-yl)carbamoyl)-5-oxodecahydropyrrolo[1,2-a]azocin-6-yl)carbamoyl)benzo[b]thiophen-5-yl)methyl)phosphonic acid]	3 to 30	0.1 to 1
CO[C@H]1CC[C@@H](NC(=O)[C@@H]2CC[C@@H]3CCC[C@H](NC(=O)c4cc5cc(C(F)P(=O)(O)O)ccc5s4)C(=O)N32)C1 (stereo partly drawn) [Compound 535, (fluoro(2-(((3S,6S,9aS)-3-(((1R,3S)-3-methoxycyclopentyl)carbamoyl)-5-oxooctahydro-1H-pyrrolo[1,2-a]azepin-6-yl)carbamoyl)benzo[b]thiophen-5-yl)methyl)phosphonic acid]	3 to 30	1 to 10
CO[C@@H]1CC[C@@H](NC(=O)[C@@H]2CC[C@@H]3CCC[C@H](NC(=O)c4cc5cc(C(F)P(=O)(O)O)ccc5s4)C(=O)N32)C1 (stereo partly drawn) [Compound 536, (fluoro(2-(((3S,6S,9aS)-3-(((1R,3R)-3-methoxycyclopentyl)carbamoyl)-5-oxooctahydro-1H-pyrrolo[1,2-a]azepin-6-yl)carbamoyl)benzo[b]thiophen-5-yl)methyl)phosphonic acid]	3 to 30	1 to 10
O=C(N[C@H]1CCC[C@H]2CC[C@@H](C(=O)N[C@@H]3CC[C@@H](O)C3)N2C1=O)c1cc2cc(C(F)P(=O)(O)O)ccc2s1 (stereo partly drawn) [Compound 537, (fluoro(2-(((3S,6S,9aS)-3-(((1R,3R)-3-hydroxycyclopentyl)carbamoyl)-5-oxooctahydro-1H-pyrrolo[1,2-a]azepin-6-yl)carbamoyl)benzo[b]thiophen-5-yl)methyl)phosphonic acid]	3 to 30	1 to 10
O=C(N[C@H]1CCC[C@H]2CC[C@@H](C(=O)N3CC(c4nccnc4F)C3)N2C1=O)c1cc2cc(CP(=O)(O)O)ccc2s1 [Compound 538, ((2-(((3S,6S,9aS)-3-(3-(3-fluoropyrazin-2-yl)azetidine-1-carbonyl)-5-oxooctahydro-1H-pyrrolo[1,2-a]azepin-6-yl)carbamoyl)benzo[b]thiophen-5-yl)methyl)phosphonic acid]	3 to 30	1 to 10
O=C(N[C@H]1CCC[C@H]2CC[C@@H](C(=O)N3CC(c4cnccc4O)C3)N2C1=O)c1cc2cc(CP(=O)(O)O)ccc2s1 [Compound 539, ((2-(((3S,6S,9aS)-3-(3-(4-hydroxypyridin-3-yl)azetidine-1-carbonyl)-5-oxooctahydro-1H-pyrrolo[1,2-a]azepin-6-yl)carbamoyl)benzo[b]thiophen-5-yl)methyl)phosphonic acid]	3 to 30	< 0.1
O=C(N[C@H]1CCC[C@H]2CC[C@@H](C(=O)N3CC(c4cnccc4O)C3)N2C1=O)c1cc2cc(C(F)P(=O)(O)O)ccc2s1 (stereo partly drawn) [Compound 540, (fluoro(2-(((3S,6S,9aS)-3-(3-(4-hydroxypyridin-3-yl)azetidine-1-carbonyl)-5-oxooctahydro-1H-pyrrolo[1,2-a]azepin-6-yl)carbamoyl)benzo[b]thiophen-5-yl)methyl)phosphonic acid]	0.3 to 3	< 0.1
O=C(N[C@H]1CCC[C@H]2CC[C@@H](C(=O)N3CC(c4cc(F)ccn4)C3)N2C1=O)c1cc2cc(CP(=O)(O)O)ccc2s1 [Compound 541, ((2-(((3S,6S,9aS)-3-(3-(4-fluoropyridin-2-yl)azetidine-1-carbonyl)-5-oxooctahydro-1H-pyrrolo[1,2-a]azepin-6-yl)carbamoyl)benzo[b]thiophen-5-yl)methyl)phosphonic acid]	3 to 30	1 to 10
Cn1nccc1N1CC[C@@H](NC(=O)[C@@H]2CC[C@@H]3CCCC[C@H](NC(=O)c4cc5cc(C(F)P(=O)(O)O)ccc5s4)C(=O)N32)C1 (stereo partly drawn) [Compound 542, (fluoro(2-(((3S,6S,10aS)-3-(((R)-1-(1-methyl-1H-pyrazol-5-yl)pyrrolidin-3-yl)carbamoyl)-5-oxodecahydropyrrolo[1,2-a]azocin-6-yl)carbamoyl)benzo[b]thiophen-5-yl)methyl)phosphonic acid]	3 to 30	1 to 10
O=C(N[C@H]1CCC[C@H]2CC[C@@H](C(=O)N3CC(c4cc(O)ccn4)C3)N2C1=O)c1cc2cc(CP(=O)(O)O)ccc2s1 [Compound 543, ((2-(((3S,6S,9aS)-3-(3-(4-hydroxypyridin-2-yl)azetidine-1-carbonyl)-5-oxooctahydro-1H-pyrrolo[1,2-a]azepin-6-yl)carbamoyl)benzo[b]thiophen-5-yl)methyl)phosphonic acid]	3 to 30	1 to 10
O=C(N[C@H]1CCC[C@H]2CC[C@@H](C(=O)N3CC(c4ccc5ncccc5c4F)C3)N2C1=O)c1cc2cc(C(F)P(=O)(O)O)ccc2s1 (stereo partly drawn) [Compound 544, (fluoro(2-(((3S,6S,9aS)-3-(3-(5-fluoroquinolin-6-yl)azetidine-1-carbonyl)-5-oxooctahydro-1H-pyrrolo[1,2-a]azepin-6-yl)carbamoyl)benzo[b]thiophen-5-yl)methyl)phosphonic acid]	3 to 30	1 to 10
O=Cc1ccncc1C1CN(C(=O)[C@@H]2CC[C@@H]3CCC[C@H](NC(=O)c4cc5cc(CP(=O)(O)O)ccc5s4)C(=O)N32)C1 [Compound 545, ((2-(((3S,6S,9aS)-3-(3-(4-formylpyridin-3-yl)azetidine-1-carbonyl)-5-oxooctahydro-1H-pyrrolo[1,2-a]azepin-6-yl)carbamoyl)benzo[b]thiophen-5-yl)methyl)phosphonic acid]	3 to 30	1 to 10
O=C(N[C@H]1CCC[C@H]2CC[C@@H](C(=O)N3CC(c4cnccc4C4OCCO4)C3)N2C1=O)c1cc2cc(CP(=O)(O)O)ccc2s1 [Compound 546, ((2-(((3S,6S,9aS)-3-(3-(4-(1,3-dioxolan-2-yl)pyridin-3-yl)azetidine-1-carbonyl)-5-oxooctahydro-1H-pyrrolo[1,2-a]azepin-6-yl)carbamoyl)benzo[b]thiophen-5-yl)methyl)phosphonic acid]	3 to 30	1 to 10
CC1(c2ccccn2)CN(C(=O)[C@@H]2CC[C@@H]3CCC[C@H](NC(=O)c4cc5cc(C(F)(F)P(=O)(O)O)ccc5s4)C(=O)N32)C1 [Compound 547, (difluoro(2-(((3S,6S,9aS)-3-(3-methyl-3-(pyridin-2-yl)azetidine-1-carbonyl)-5-oxooctahydro-1H-pyrrolo[1,2-a]azepin-6-yl)carbamoyl)benzo[b]thiophen-5-yl)methyl)phosphonic acid]	0.3 to 3	< 0.1
CC1(c2ccccn2)CN(C(=O)[C@@H]2CC[C@@H]3CCC[C@H](NC(=O)c4cc5cc(CP(=O)(O)O)ccc5s4)C(=O)N32)C1 [Compound 548, ((2-(((3S,6S,9aS)-3-(3-methyl-3-(pyridin-2-yl)azetidine-1-carbonyl)-5-oxooctahydro-1H-pyrrolo[1,2-a]azepin-6-yl)carbamoyl)benzo[b]thiophen-5-yl)methyl)phosphonic acid]	3 to 30	1 to 10
NC(=O)N1CC(NC(=O)[C@@H]2CC[C@@H]3CCCC[C@H](NC(=O)c4cc5cc(C(F)P(=O)(O)O)ccc5s4)C(=O)N32)C1 (stereo partly drawn) [Compound 549, ((2-(((3S,6S,10aS)-3-((1-carbamoylazetidin-3-yl)carbamoyl)-5-oxodecahydropyrrolo[1,2-a]azocin-6-yl)carbamoyl)benzo[b]thiophen-5-yl)fluoromethyl)phosphonic acid]	3 to 30	< 0.1
CCc1ccncc1C1CN(C(=O)[C@@H]2CC[C@@H]3CCC[C@H](NC(=O)c4ccc5cc(CP(=O)(O)O)sc5c4)C(=O)N32)C1 [Compound 550, ((6-(((3S,6S,9aS)-3-(3-(4-ethylpyridin-3-yl)azetidine-1-carbonyl)-5-oxooctahydro-1H-pyrrolo[1,2-a]azepin-6-yl)carbamoyl)benzo[b]thiophen-2-yl)methyl)phosphonic acid]	3 to 30	0.1 to 1
O=C(N[C@H]1CCCC[C@H]2CC[C@@H](C(=O)N[C@H]3CN(C(=O)OC4CC4)C[C@@H]3F)N2C1=O)c1cc2cc(C(F)P(=O)(O)O)ccc2s1 (stereo partly drawn) [Compound 554, ((2-(((3S,6S,10aS)-3-(((3S,4S)-1-(cyclopropoxycarbonyl)-4-fluoropyrrolidin-3-yl)carbamoyl)-5-oxodecahydropyrrolo[1,2-a]azocin-6-yl)carbamoyl)benzo[b]thiophen-5-yl)fluoromethyl)phosphonic acid]	0.3 to 3	1 to 10
